The source of these data is patent US9139593B2, “Azetidine compounds, compositions and methods of use” (Hoffman-La Roche Inc., priority 2011, dated 2015).

The structures appear in SMILES notation.

A word on the IC50: it is the concentration that inhibits the measured activity by half. A low value points to greater potency in that assay.

In this experiment the target is Human Soluble Epoxide Hydrolase (Homo sapiens (Human), UniProt P34913). In words: Human Soluble Epoxide Hydrolase Enzyme Assay. To be noted: resorufin epoxide substrate, fluorescence, room temperature, triplicates. Format: biochemical. As for the experimental part: Human Soluble Epoxide Hydrolase Enzyme Assay
Sequence of Human Soluble Epoxide Hydrolase (P34913 whole entry): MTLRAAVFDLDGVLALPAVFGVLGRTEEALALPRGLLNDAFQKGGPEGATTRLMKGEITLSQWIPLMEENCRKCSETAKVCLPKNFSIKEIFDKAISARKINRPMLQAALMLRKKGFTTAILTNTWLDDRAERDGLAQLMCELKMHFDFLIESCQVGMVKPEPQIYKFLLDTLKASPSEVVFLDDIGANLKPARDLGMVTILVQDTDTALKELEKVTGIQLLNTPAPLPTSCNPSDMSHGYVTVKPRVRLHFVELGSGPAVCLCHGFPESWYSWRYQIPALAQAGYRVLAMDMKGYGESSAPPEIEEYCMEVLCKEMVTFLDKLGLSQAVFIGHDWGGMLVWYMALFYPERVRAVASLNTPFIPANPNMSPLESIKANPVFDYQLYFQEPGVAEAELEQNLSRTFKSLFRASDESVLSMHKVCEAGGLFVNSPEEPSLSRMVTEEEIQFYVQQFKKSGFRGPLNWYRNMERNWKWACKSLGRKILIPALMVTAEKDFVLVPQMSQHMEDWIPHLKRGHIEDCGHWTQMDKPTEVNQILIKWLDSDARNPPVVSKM
Test compounds (1.6 mM stock in DMSO) were diluted 3 fold in series in DMSO and 0.8 microliters per well were added into 384-well NBS microplates (Corning). Resorufin epoxide substrate (20 uM stock in DMSO) was diluted to 5 μM with Assay Buffer (25 mM bis-Tris-HCl, pH 7.0, 1 mM DTT and 0.2 mg/ml BSA) and 8 microliters per well were added to the microplates. Thirty two microliters per well of 3.6 nM soluble epoxide hydrolase in Assay Buffer was then added. The samples were incubated at room temperature and assay signals were monitored by reading excitation at 530 nm and emission fluorescence at 590 nm on a PlateVision (Zeiss) reader every 2 minutes for 8 times. The reaction rate, % inhibition and IC50 values were calculated using AssayAnalyzer and Condoseo software (Genedata AG, Basel, Switzerland).
All the experiments were done in triplicates.
The compounds of the present invention were tested for their capacity to inhibit sEH activity.
`O=C(NCc1ccc(Cl)cc1Cl)N1CC2CN(C(=O)c3ccccc3)C2C1` (racemic) [Example 18, rac-6-Benzoyl-3,6-diaza-bicyclo[3.2.0]heptane-3-carboxylic acid 2,4-dichloro-benzylamide] returned an IC50 of 183 nM. The value for `O=C(NCc1ccc(Cl)cc1Cl)N1CC2CN(S(=O)(=O)c3ccccc3)C2C1` (racemic) [Example 19, rac-6-Benzenesulfonyl-3,6-diaza-bicyclo[3.2.0]heptane-3-carboxylic acid 2,4-dichloro-benzylamide] was 238 nM; that for `O=C(NCc1ccc(Cl)cc1Cl)N1CC2CN(c3ncccn3)C2C1` (racemic) [Example 20, rac-6-Pyrimidin-2-yl-3,6-diaza-bicyclo[3.2.0]heptane-3-carboxylic acid 2,4-dichloro-benzylamide] was 361 nM; that for `O=C(O)c1ccc(N2CC3CN(C(=O)NCc4ccc(Cl)cc4Cl)CC32)cc1` (racemic) [Example 21, rac-4-[3-(2,4-Dichloro-benzylcarbamoyl)-3,6-diaza-bicyclo[3.2.0]hept-6-yl]-benzoic acid] was 351 nM. The result for `O=C(NCc1ccc(Cl)cc1Cl)N1CC2(C1)CN(C(=O)c1ccccc1)C2` [Example 1, 6-Benzoyl-2,6-diaza-spiro[3.3]heptane-2-carboxylic acid 2,4-dichloro-benzylamide] reads 241 nM. The result for `O=C(O)c1ccc(N2CC3(CN(C(=O)NCc4ccc(Cl)cc4Cl)C3)C2)cc1` [Example 2, 4-[6-(2,4-Dichloro-benzylcarbamoyl)-2,6-diaza-spiro[3.3]hept-2-yl]-benzoic acid] reads 1260 nM; that for `O=C(NCc1ccc(Cl)cc1Cl)N1CC2(C1)CN(c1ncccn1)C2` [Example 4, 6-Pyrimidin-2-yl-2,6-diaza-spiro[3.3]heptane-2-carboxylic acid 2,4-dichloro-benzylamide], 2320 nM; that for `O=C(NCc1ccc(Cl)cc1Cl)N1CC2(CCN2S(=O)(=O)c2ccc(F)cc2)C1` [Example 5, N-(2,4-Dichlorobenzyl)-1-(4-fluorophenylsulfonyl)-1,6-diazaspiro[3.3]heptane-6-carboxamide], 284 nM.

`O=C(NCc1ccc(Cl)cc1Cl)N1CCC12CN(S(=O)(=O)c1ccc(Cl)cc1)C2` [Example 6, 6-(4-Chlorophenylsulfonyl)-N-(2,4-dichlorobenzyl)-1,6-diazaspiro[3.3]heptane-1-carboxamide]: half-maximal inhibition (IC50) required 321 nM. Compound `O=C(NCc1ccc(Cl)cc1Cl)N1CC2(CCN2c2ncccn2)C1` [Example 7, N-(2,4-Dichlorobenzyl)-1-(pyrimidin-2-yl)-1,6-diazaspiro[3.3]heptane-6-carboxamide] had an IC50 of 125 nM. As to `O=C(NCCCc1ccccc1)N1CC2(CCN2Cc2ccccc2)C1` [Example 8, Benzyl-1,6-diaza-spiro[3.3]heptane-6-carboxylic acid (3-phenyl-propyl)-amide], the IC50 came out at 1980 nM. The result for `O=C(NCCCc1ccccc1)N1CC2(CCN2S(=O)(=O)c2ccc(Cl)cc2)C1` [Example 9, 1-(4-Chloro-benzenesulfonyl)-1,6-diaza-spiro[3.3]heptane-6-carboxylic acid (3-phenyl-propyl)-amide] reads 1990 nM; that for `O=C(NC12CC3CC(CC(C3)C1)C2)N1CC2(CCN2S(=O)(=O)c2ccc(Cl)cc2)C1` [Example 10, 1-(4-Chloro-benzenesulfonyl)-1,6-diaza-spiro[3.3]heptane-6-carboxylic acid adamantan-1-ylamide], 2550 nM. Turning to `O=C(NCc1ccc(Cl)cc1Cl)N1CC2(CCN2S(=O)(=O)c2ccc(Cl)cc2)C1` [Example 11, 1-(4-Chloro-benzenesulfonyl)-1,6-diaza-spiro[3.3]heptane-6-carboxylic acid 2,4-dichloro-benzylamide], half-maximal inhibition (IC50) required 640 nM.

Compound `O=C(NCc1ccccc1OC(F)(F)F)N1CC2(CCN2S(=O)(=O)c2ccc(Cl)cc2)C1` [Example 12, 1-(4-Chloro-benzenesulfonyl)-1,6-diaza-spiro[3.3]heptane-6-carboxylic acid 2-trifluoromethoxy-benzylamide] displayed an IC50 of 243 nM. Consider `O=C(NCCCc1ccccc1)N1CC2(CCN2S(=O)(=O)c2ccccc2C(F)(F)F)C1` [Example 13, 1-(2-trifluoromethyl-benzenesulfonyl)-1,6-diaza-spiro[3.3]heptane-6-carboxylic acid (3-phenyl-propyl)-amide], for which the concentration for half-maximal inhibition (IC50) was 476 nM. As to `O=C(NCCCc1ccccc1)[C@@H]1CCC12CN(S(=O)(=O)c1ccccc1Cl)C2` [Example 14, (R)-2-(2-Chlorophenylsulfonyl)-N-(3-phenylpropyl)-2-azaspiro[3.3]heptane-5-carboxamide], the IC50 worked out at 2790 nM. The value for `O=C(NCCCc1ccccc1)[C@H]1CCC12CN(S(=O)(=O)c1ccccc1Cl)C2` [Example 15, (S)-2-(2-Chlorophenylsulfonyl)-N-(3-phenylpropyl)-2-azaspiro[3.3]heptane-5-carboxamide] was 288 nM.

On to `O=C(NCc1ccc(Cl)cc1Cl)N[C@@H]1CCC12CN(S(=O)(=O)c1ccc(Cl)cc1)C2` [Example 16, (R)-1-(2-(4-Chlorophenylsulfonyl)-2-azaspiro[3.3]heptan-5-yl)-3-(2,4-dichlorobenzyl)urea], for which the concentration for half-maximal inhibition (IC50) was found to be 2690 nM.

Compound `O=C(NCc1ccc(Cl)cc1Cl)N[C@H]1CCC12CN(S(=O)(=O)c1ccc(Cl)cc1)C2` [Example 17, (S)-1-(2-(4-Chlorophenylsulfonyl)-2-azaspiro[3.3]heptan-5-yl)-3-(2,4-dichlorobenzyl)urea] showed an IC50 of 678 nM.
